The test system of this data set is CCRIS mutagenicity, Ames/micronucleus/aberration tests. The data set can be described thus: CCRIS mutagenicity studies.

Calls of active or inactive are those of the source. How the calls were made is not given here.

Consider `CCN(CC)c1ccc(N)cc1`, for which the mutagenic call reads like this: (End Point: IN VITRO CHROMOSOMAL ABERRATIONS, Test System: CHINESE HAMSTER LUNG CELLS (CHL), Metabolic Activation: RAT, LIVER, S-9, KC-400) “inactive; negative”; (End Point: IN VITRO CHROMOSOMAL ABERRATIONS, Test System: CHINESE HAMSTER OVARY CELLS (CHO), Metabolic Activation: NONE) “active; positive (structural changes)”; (End Point: IN VITRO CHROMOSOMAL ABERRATIONS, Test System: CHINESE HAMSTER OVARY CELLS (CHO), Metabolic Activation: RAT, LIVER, S-9, AROCLOR 1254) “inactive; negative”; (Test System: AMES SALMONELLA TYPHIMURIUM, Strain/Indicator: TA97, Metabolic Activation: HAMSTER, LIVER, S-9, AROCLOR 1254 (10%), Method: PREINCUBATION) “active; positive”; (Test System: AMES SALMONELLA TYPHIMURIUM, Strain/Indicator: TA97, Metabolic Activation: NONE, Method: PREINCUBATION) “inactive; negative”; (Test System: AMES SALMONELLA TYPHIMURIUM, Strain/Indicator: TA97, Metabolic Activation: RAT, LIVER, S-9, AROCLOR 1254 (10%), Method: PREINCUBATION) “inactive; negative”. Also, the mutagenic call by setting is: (Test System: AMES SALMONELLA TYPHIMURIUM, Strain/Indicator: TA98, Metabolic Activation: HAMSTER, LIVER, S-9, AROCLOR 1254 (10%), Method: PREINCUBATION) “active; positive”; (Test System: AMES SALMONELLA TYPHIMURIUM, Strain/Indicator: TA98, Metabolic Activation: NONE, Method: PREINCUBATION) “inactive; negative”; (Test System: AMES SALMONELLA TYPHIMURIUM, Strain/Indicator: TA98, Metabolic Activation: RAT, LIVER, S-9, AROCLOR 1254 (10%), Method: PREINCUBATION) “active; positive”; (Test System: AMES SALMONELLA TYPHIMURIUM, Strain/Indicator: TA100, Metabolic Activation: HAMSTER, LIVER, S-9, AROCLOR 1254 (10%), Method: PREINCUBATION) “active; positive”; (Test System: AMES SALMONELLA TYPHIMURIUM, Strain/Indicator: TA100, Metabolic Activation: NONE, Method: PREINCUBATION) “inactive; negative”; (Test System: AMES SALMONELLA TYPHIMURIUM, Strain/Indicator: TA100, Metabolic Activation: RAT, LIVER, S-9, AROCLOR 1254 (30%), Method: PREINCUBATION) “inactive; negative”. The mutagenic call by setting is: (Test System: AMES SALMONELLA TYPHIMURIUM, Strain/Indicator: TA1535, Metabolic Activation: HAMSTER, LIVER, S-9, AROCLOR 1254 (10%), Method: PREINCUBATION) “inactive; negative”; (Test System: AMES SALMONELLA TYPHIMURIUM, Strain/Indicator: TA1535, Metabolic Activation: NONE, Method: PREINCUBATION) “inactive; negative”; (Test System: AMES SALMONELLA TYPHIMURIUM, Strain/Indicator: TA1535, Metabolic Activation: RAT, LIVER, S-9, AROCLOR 1254 (10%), Method: PREINCUBATION) “inactive; negative”.

Regarding `CC(C)c1ccccc1OC(=O)N(C)N=O`, under “Test System: E. COLI WP2, Strain/Indicator: WP2, Metabolic Activation: NONE, Method: STANDARD PLATE”, the mutagenic call was “active; positive”.

As to `Cc1cc(C)c2cc(C)c(N)cc2n1`, the mutagenic call (Test System: AMES SALMONELLA TYPHIMURIUM, Strain/Indicator: TA98, Method: STANDARD PLATE) was “active; positive”.

Source of the values: PubChem BioAssay AID1259407 (Chemical Carcinogenesis Research Information System (CCRIS), 2018).
